Key:
Type in all cases: in vivo, human
patients with ALS [1] = assay: clinical observation of muscle function (ALSFRS-R) in ALS patients (Example 2); conditions: during the five-week treatment period; 1 mg/kg s.c. weekly
Description: (§1) A clinical trial in the form of a Phase IIa, single-center, open label, single-arm study where the safety, tolerability and possible efficacy of subcutaneously administered dextran sulfate was evaluated in patients with ALS of intermediate progression rate. The clinical trial was conducted at the Sahlgrenska University Hospital, Gothenburg, Sweden and was overseen and approved by the Ethics Committee of the University of Gothenburg and by the Swedish Medical Products Agency.
(§2) Dextran sulfate (Tikomed AB, Viken, Sweden, WO 2016/076780) was administered at 1 mg/kg by […] subcutaneous injection once a week for five weeks to 13 human patients suffering from ALS.
ALSFRS-R was assessed pre-treatment and weekly thereafter for the 5 treatment weeks and for the visits at the follow-up period.
The biochemical evidence of reduced muscle degeneration supports the clinical observations of improved muscle function. For example, in the ALSFRS-R, functions mediated by cervical, trunk, lumbosacral, and respiratory muscles are each assessed by 3 items and scores in these categories show close agreement with objective measures of muscle strength.

patients with ALS [2] = assay: Phase IIa trial in ALS patients: serum myoglobin and creatine kinase (Example 2)
Description: as §1, §2
(§3) Blood samples were drawn at defined study intervals by a venous catheter into vacutainer tubes. Laboratory analyses of blood plasma were performed immediately after collection by the Clinical Chemistry Laboratory at the Sahlgrenska University Hospital.

[3] = test system: hepatocyte growth factor (HGF); assay: circulating HGF after dextran sulfate injection in ALS patients (Example 2); conditions: peak at 2.5 hours after injection; before 820±581; p<0.001
Description: as §1, §2, §3
This indicates the potential for direct myogenic, as well as indirect neurotrophic, HGF-mediated effects on muscle atrophy after dextran sulfate administration.

dextran sulfate
severe bulbar paresis in two patients (patients with ALS [1]): almost complete resolution
reduction in serum creatine kinase levels (patients with ALS [2]; after 4 weeks): 13.3%
reduction in serum myoglobin levels (patients with ALS [2]; after 4 weeks vs Day 1): 30%
serum myoglobin levels (patients with ALS [2]; after 4 weeks, 1 mg/kg s.c. once a week, Day 1: 133.92±126.28, p=0.021): 103.69 ± 72.16 µg/L
serum creatine kinase levels (patients with ALS [2]; after 4 weeks, 1 mg/kg s.c. once a week, before 7.15±5.74, p<0.05): 6.2±5.08 μkat/L
circulating HGF, peak [3]: 37.9 ± 14.2 ng/mL
